Consider 1 molecule from BindingDB's records for doi:10.1016/s0960-894x(02)00455-9 (Fukui Research Institute, 2002).

One may read the IC50 as the midpoint of a concentration-inhibition curve.

Structures are written as SMILES.

Experiment [1] deals with Nitric oxide synthase, inducible (Homo sapiens, UniProt P35228). Put plainly: ChEBML_89186. From the text:
Concentration required to inhibit Inducible nitric oxide synthase over expressed in A549 cells

Experiment [2] concerns the target T1, Nitric oxide synthase, endothelial (Homo sapiens, UniProt P29474).
T1 sequence (P29474 whole entry): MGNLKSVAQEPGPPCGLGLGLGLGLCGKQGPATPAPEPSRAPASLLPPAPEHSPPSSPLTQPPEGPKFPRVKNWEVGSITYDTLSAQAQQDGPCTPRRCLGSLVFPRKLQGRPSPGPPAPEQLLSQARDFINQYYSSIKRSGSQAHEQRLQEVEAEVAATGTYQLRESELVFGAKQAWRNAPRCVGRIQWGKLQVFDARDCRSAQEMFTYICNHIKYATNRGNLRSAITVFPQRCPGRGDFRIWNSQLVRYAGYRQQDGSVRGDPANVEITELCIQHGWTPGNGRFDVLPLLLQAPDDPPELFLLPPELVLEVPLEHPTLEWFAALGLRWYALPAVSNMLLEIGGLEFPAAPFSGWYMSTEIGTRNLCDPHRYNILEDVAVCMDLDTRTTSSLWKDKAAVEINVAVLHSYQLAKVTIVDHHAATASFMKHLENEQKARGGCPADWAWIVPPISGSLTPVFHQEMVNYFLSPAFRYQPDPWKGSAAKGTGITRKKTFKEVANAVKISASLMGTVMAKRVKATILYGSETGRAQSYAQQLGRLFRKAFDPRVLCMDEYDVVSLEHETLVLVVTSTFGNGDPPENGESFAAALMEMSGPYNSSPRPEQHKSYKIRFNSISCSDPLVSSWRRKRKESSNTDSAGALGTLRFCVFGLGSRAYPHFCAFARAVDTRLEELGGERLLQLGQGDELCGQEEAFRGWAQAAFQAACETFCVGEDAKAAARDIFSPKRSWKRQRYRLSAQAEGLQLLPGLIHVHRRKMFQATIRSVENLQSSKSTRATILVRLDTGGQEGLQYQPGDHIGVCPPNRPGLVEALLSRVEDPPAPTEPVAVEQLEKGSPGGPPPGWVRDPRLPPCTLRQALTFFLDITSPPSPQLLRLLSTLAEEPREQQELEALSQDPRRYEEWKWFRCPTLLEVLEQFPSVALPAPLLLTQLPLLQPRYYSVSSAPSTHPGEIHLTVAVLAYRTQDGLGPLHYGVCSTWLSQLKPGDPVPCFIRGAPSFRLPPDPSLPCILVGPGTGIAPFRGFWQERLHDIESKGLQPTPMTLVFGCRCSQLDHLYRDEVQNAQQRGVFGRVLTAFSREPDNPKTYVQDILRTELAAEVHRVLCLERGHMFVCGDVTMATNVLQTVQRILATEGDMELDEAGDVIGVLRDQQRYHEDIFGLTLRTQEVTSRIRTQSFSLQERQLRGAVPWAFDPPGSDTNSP
The experiment can be described thus: ChEBML_64984. The source says:
Inhibition of human endothelial Nitric Oxide Synthase expressed in Sf-21 cells

Chain of Nitric oxide synthase, inducible (P35228 whole entry): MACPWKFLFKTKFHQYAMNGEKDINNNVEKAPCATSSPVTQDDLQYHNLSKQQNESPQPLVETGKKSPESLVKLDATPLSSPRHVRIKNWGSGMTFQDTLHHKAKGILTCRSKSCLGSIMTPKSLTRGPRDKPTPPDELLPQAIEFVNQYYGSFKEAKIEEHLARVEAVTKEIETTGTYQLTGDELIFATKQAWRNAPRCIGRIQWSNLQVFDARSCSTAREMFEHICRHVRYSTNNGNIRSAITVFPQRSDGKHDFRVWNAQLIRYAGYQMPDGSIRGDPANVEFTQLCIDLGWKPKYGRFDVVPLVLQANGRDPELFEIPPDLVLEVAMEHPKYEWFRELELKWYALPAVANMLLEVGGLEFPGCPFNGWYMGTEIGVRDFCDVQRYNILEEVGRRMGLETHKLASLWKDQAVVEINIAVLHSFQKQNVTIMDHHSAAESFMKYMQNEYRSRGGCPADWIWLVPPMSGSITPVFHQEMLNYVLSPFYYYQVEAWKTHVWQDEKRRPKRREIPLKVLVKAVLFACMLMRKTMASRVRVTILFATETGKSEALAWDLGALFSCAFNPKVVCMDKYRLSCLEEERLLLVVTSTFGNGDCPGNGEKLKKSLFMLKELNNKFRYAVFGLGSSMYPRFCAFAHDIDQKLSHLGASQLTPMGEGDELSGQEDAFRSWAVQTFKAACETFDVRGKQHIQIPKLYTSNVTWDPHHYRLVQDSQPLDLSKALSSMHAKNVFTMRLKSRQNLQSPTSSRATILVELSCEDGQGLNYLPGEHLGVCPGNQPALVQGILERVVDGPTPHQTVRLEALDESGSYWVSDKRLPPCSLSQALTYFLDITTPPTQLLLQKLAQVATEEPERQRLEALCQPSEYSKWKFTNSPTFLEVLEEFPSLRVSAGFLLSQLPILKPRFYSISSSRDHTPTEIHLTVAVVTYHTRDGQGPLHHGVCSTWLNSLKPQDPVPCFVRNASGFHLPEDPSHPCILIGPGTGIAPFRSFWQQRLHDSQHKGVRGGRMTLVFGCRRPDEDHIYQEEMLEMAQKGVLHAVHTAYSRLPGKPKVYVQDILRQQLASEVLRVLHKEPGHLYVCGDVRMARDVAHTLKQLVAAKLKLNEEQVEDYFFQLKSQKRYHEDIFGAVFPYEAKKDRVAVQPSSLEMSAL

Regarding `CC1=CC(N)=NCC1`, the concentration for half-maximal inhibition (IC50) in experiment [1] was 700 nM; in experiment [2] it was 440 nM.
